{"source": "paper PMC12724136", "about": "“Design of antibody structure-guided epitope vaccines in silico to induce potent immune responses against emerging viruses” (Journal of Virology, 2025)", "molecules": {"B1": {"name": "scFv1, prokaryote-expressed (pET32a-scFv1) (scFv)", "scFv": "MSHRLTCAYSGFSSDIHAVWVRQAAGKGLEWIAYISDSSAYIYYSQSVRGRFTISRDNSRKQVYLQMNSLTTEDSAVYYCTREGSGFAFDYWGKGTGGGGSGGGGSGGGGSVTISATGSSNIGADLSWYLQKTGETPKLLIYKASTRSSGTPPRFSGSTSGSQYTLTISGVQAEDAGDYYCLGDHGGGALTFGGGTK", "notes": "also called antibody scFv1; source: E. coli BL21, prokaryotic expression (pET32a-scFv1); freeze-dried, dissolved in PBS"}, "B2": {"name": "scFv1, expressed in CHO cells (pcDNA3.1-scFv1) (scFv)", "scFv": "B1 scFv", "notes": "also called eukaryote-expressed scFv1; source: CHO cells, eukaryotic expression (pcDNA3.1-scFv1)"}}, "key": {"[1]": {"system": "tilapia IgM", "test": "Serum antibody levels of tilapia after immunization with epitope peptides (ELISA)", "assay_type": "in vivo, Nile tilapia (Oreochromis niloticus)", "settings": "for immunogenicity (serum antibody titer) after single immunization: 20 µg peptide i.m. with Freund's adjuvant, 7-28 days; for immunogenicity (serum IgM antibody levels) after primary and booster immunization: 20 µg peptide i.m., booster after 14 days, 7-42 days", "text": "Epitope vaccines usually need to be modified with Freund’s adjuvant (Beyotime) before immunization. Briefly, for a single immunization, the epitope peptide is mixed with an equal dose of complete Freund’s adjuvant and then administered to tilapia. For booster immunization, an equal dose of incomplete Freund’s adjuvant is fused with the epitope peptide before vaccination. For the S1, S3, and S10 epitope vaccine immunization programs, healthy Oreochromis niloticus were divided into six groups (70 fish per group) and vaccinated with 20 µg of peptide vaccine by intramuscular injection. During the 1–4 week immunization period, we collected four fish serum samples weekly for immunological analysis.\nIn the immunization experiments based on the P30-designed vaccine, healthy Nile tilapia were divided into four groups (70 fish per group) and injected intramuscularly with 20 µg of peptide vaccine to complete the primary immunization. After 14 days, the same dose of vaccine was administered again to complete the booster immunization. Serum and tissue samples were collected from 4 fishes in each group weekly after the primary immunization, for a total of 6 weeks. Furthermore, a PBS control was incorporated into both immunization experiments, and the immunization process was conducted in accordance with the aforementioned methodology.\nSerum antibody levels after immunization were determined by indirect ELISA. Specifically, serum samples were diluted appropriately, coated to enzyme-labeled plates, and incubated overnight at 4°C. After being washed three times with PBST buffer, each well was incubated with mouse anti-tilapia IgM mAb (1:5,000) at 37°C for 1 h. After washing, each well was incubated with HRP-conjugated goat anti-mouse IgG (1:5,500) for an additional hour. Color development was carried out as described above."}, "[2]": {"system": "scFv1", "test": "Cellular co-localization of epitope peptides with scFv1 in HEK293T cells", "assay_type": "cell-based, Nile tilapia (Oreochromis niloticus)", "settings": "pEGFP-peptide and pCMV-DsRed-scFv1 in HEK293T, 48 h, confocal", "procedure": "The pEGFP-P30, S390F, and G394K plasmids, along with the pCMV-C-DsRed-scFv1 plasmid, were co-transfected into HEK293T cells and cultured for 48 h. Afterward, the cells were fixed with 4% paraformaldehyde, permeabilized, and stained with DPAI (Beyotime), which contains an anti-fluorescence quencher. The expression and co-localization of proteins in cells were observed using confocal fluorescence microscopy."}, "[3]": {"system": "scFv1", "test": "Yeast two-hybrid assay of epitope peptides with scFv1", "assay_type": "cell-based, Nile tilapia (Oreochromis niloticus)", "settings": "pGBKT-scFv1 bait, pGADT-peptide; Y2Hgold; 96 h", "procedure": "The pGBKT-scFv1 bait plasmid was transformed into Y2Hgold yeast competent cells (WEIDI) and cultured in SD-deficient medium (Beijing Zoman Biotechnology Co., Ltd.) to confirm the absence of self-activation. Subsequently, pGADT-P30, pGADT-S390F, and pGADT-G394K plasmids, along with the pGBKT-scFv1 bait plasmid, were co-transformed into Y2Hgold yeast competent cells. The cells were then cultured on LT-deficient SD and LTHA-deficient SD medium for 48–96 h to observe the expression of the reporter genes. Additionally, the pGADT-T plasmid was co-transformed with the pGBKT-53 and pGBKT-lam plasmids and cultured as positive and negative controls, respectively."}, "[4]": {"system": "scFv1", "test": "Co-immunoprecipitation of epitope peptides with scFv1 in HEK293T cells", "assay_type": "cell-based, Nile tilapia (Oreochromis niloticus)", "settings": "for Co-IP with scFv1, His-tag system: His-tagged peptide and Flag-scFv1 co-transfected in HEK293T; for Co-IP with scFv1, GFP tag system: pEGFP-peptide and pCMV-Flag-scFv1 co-transfected in HEK293T, 48 h", "procedure": "Protein samples were extracted following the co-transfection of HEK293T cells with plasmids containing P30, S390F, G394K, and scFv1 for 48 h, respectively. Subsequent Co-IP assays were performed using the kit (Beyotime) in accordance with the provided protocol. In brief, TBS-washed protein A + G magnetic beads were incubated with GFP-tagged IgG2a mAb (1:3,000, Proteintech) for 1 h at room temperature. Subsequently, the samples were incubated at 4°C overnight. Following the washing of the beads with cell lysates containing protease inhibitors, protein elution was completed with SDS-PAGE loading buffer (Solarbio) for protein blotting. In the Western blot analysis, the GFP-tagged IgG2a mAb (1:3,000) and the Flag-tagged mouse mAb (1:2,000, Beyotime) were employed to identify the IP and input protein samples, respectively. Furthermore, all samples were characterized with a reference protein antibody (β-actin) as a standard control. Enzyme-labeled secondary antibodies consisted of HRP-conjugated goat anti-mouse IgG (1:4,000). The bands were visualized using the ECL Plus hypersensitive luminescent solution (Solarbio) and photographed with a chemiluminescence program. In addition, the His tag system was also used to verify the interaction between epitope peptides, such as P30 and scFv1. Plasmids encoding P30, S390F, and G394K fused with His tags and the plasmid encoding scFv1 fused with a Flag tag were co-transfected into HEK293T cells, respectively. The His-tag monoclonal antibody (1:500, Proteintech) was bound to A + G magnetic beads and used to detect the interaction, and all other operation steps were performed as described above."}, "[5]": {"system": "TiLV-positive IgM", "test": "Indirect ELISA, affinity of synthetic peptides for TiLV-positive serum", "assay_type": "binding, tilapia", "settings": "peptides 0.1 to 100 μg/mL", "procedure": "The indirect ELISA was used to determine the affinity of synthetic peptides for the scFv1 protein and TiLV-positive serum. For the affinity detection of scFv1, the synthetic peptides were diluted at different concentrations (0.01–100 μg/mL) and coated in a microplate. After blocking, scFv1 protein (50 µg/mL) was added and incubated for 2 h at 37°C. In order to reduce the interference of non-specific binding, 50 µg/mL of BSA protein was used as a control for the analysis of binding to the antigenic peptides. Subsequently, 100 µL of 6×His-tag mouse mAb was added to each well and incubated for 1 h, followed by the addition of 100 µL of HRP-conjugated goat anti-mouse IgG for another hour. The color development and OD measurements were performed as described previously. For the affinity detection of serum, 100 µL of positive serum (1:200) was added to each well. The primary antibody was then replaced with mouse anti-tilapia IgM mAb (Frdbio), while all other steps remained unchanged."}, "[6]": {"system": "scFv1", "test": "Western blot, binding of S3 epitope peptide and mutants to GST-scFv1", "design": "species or system Nile tilapia (Oreochromis niloticus)", "settings": "PVDF membrane with GST-scFv1 incubated with S3 proteins 37°C 2 h; 6×His tag antibody", "procedure": "The PET-N-GST-scFv1 plasmid was constructed using seamless cloning technology (Vazyme), and the protein was obtained through a prokaryotic expression system. The scFv1 protein was purified using GST resin (Beyotime) and stored after lyophilization. Similarly, S3-WT, S3-MuT-^Y386^A, S3-MuT-^R393^A, S3-MuT-^L398^A, and S3-MuT were expressed in prokaryotes using the pET32a plasmid. In the Western blot experiment, after blocking, the PVDF membrane containing GST-scFv1 blots was incubated with each of the five S3 proteins at 37°C for 2 h. Subsequently, the anti-6×His tag mouse mAb was used as the primary antibody, and HRP-conjugated goat anti-mouse IgG was used as the secondary antibody. The ECL color development steps were performed as described above."}, "[7]": {"target": "T1, S390F epitope peptide (P30 with S390F), synthetic (tilapia lake virus (TiLV), S390F (stands in the printed letters))", "T1 construct": "source: synthetic peptide (solid phase, SynthBio)", "T1 peptide": "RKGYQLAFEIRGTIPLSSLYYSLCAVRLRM", "test": "SPR", "settings": "both partners purified"}, "[8]": {"target": "T2, S1-Mut epitope peptide (S1 231–250, alanine mutant) (tilapia lake virus (TiLV))", "T2 construct": "source: synthetic peptide (solid phase, SynthBio)", "T2 peptide": "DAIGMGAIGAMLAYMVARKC", "test": "ELISA", "settings": "both partners purified"}, "[9]": {"target": "T3, S10-Mut epitope peptide (S10 55–66, alanine mutant) (tilapia lake virus (TiLV))", "T3 construct": "source: synthetic peptide (solid phase, SynthBio)", "T3 peptide": "NIEAGAAVALEM", "test": "ELISA", "settings": "both partners purified"}, "[10]": {"target": "T4, S10-WT epitope peptide (S10 55–66) (tilapia lake virus (TiLV))", "T4 construct": "source: synthetic peptide (solid phase, SynthBio)", "T4 peptide": "NIEWGDEVDLEM", "test": "ELISA", "settings": "both partners purified"}, "[11]": {"target": "T5, S1-WT epitope peptide (S1 231–250) (tilapia lake virus (TiLV))", "T5 construct": "source: synthetic peptide (solid phase, SynthBio)", "T5 peptide": "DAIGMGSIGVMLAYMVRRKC", "test": "ELISA", "settings": "both partners purified"}, "[12]": {"target": "T6, S3-WT epitope peptide (S3 385–400) (tilapia lake virus (TiLV))", "T6 construct": "source: synthetic peptide (solid phase, SynthBio)", "T6 peptide": "GYQLASEIRGTIPLSS", "test": "ELISA", "settings": "both partners purified"}}}
{"molecule": "NIEWGDEVDLEM [S10WT]", "values": [{"measurement": "immunogenicity (serum antibody titer) after single immunization", "setting": "[1]", "result": "robust immune responses"}]}
{"molecule": "RKGYQLASEIRKTIPLSSLYYSLCAVRLRM [G394K]", "values": [{"measurement": "co-localization with scFv1 in cells", "setting": "[2]", "result": "failed to bind to the antibody"}, {"measurement": "yeast two-hybrid growth on LTHA-deficient SD medium", "setting": "[3]", "result": "did not exhibit any growth"}, {"measurement": "Co-IP with scFv1, His-tag system", "setting": "[4]", "result": "did not"}, {"measurement": "Co-IP with scFv1, GFP tag system", "setting": "[4]", "result": "negative in the Co-IP reaction"}]}
{"molecule": "RKGYQLASEIRGTIPLSSLYYSLCAVRLRM [P30]", "values": [{"measurement": "co-localization with scFv1 in cells", "setting": "[2]", "result": "co-localized with the antibody"}, {"measurement": "yeast two-hybrid growth on LTHA-deficient SD medium", "setting": "[3]", "result": "exhibited plaque growth"}, {"measurement": "Co-IP with scFv1, His-tag system", "setting": "[4]", "result": "showed interactions with scFv1"}, {"measurement": "Co-IP with scFv1, GFP tag system", "setting": "[4]", "result": "able to bind to the antibody"}]}
{"molecule": "DAIGMGAIGAMLAYMVARKC [S1MuT]", "values": [{"measurement": "immunogenicity (serum antibody titer) after single immunization", "setting": "[1]", "result": "lower antibody stimulation level"}]}
{"molecule": "DAIGMGSIGVMLAYMVRRKC [S1WT]", "values": [{"measurement": "immunogenicity (serum antibody titer) after single immunization", "setting": "[1]", "result": "robust immune responses"}]}
{"molecule": "NIEAGAAVALEM [S10MuT]", "values": [{"measurement": "immunogenicity (serum antibody titer) after single immunization", "setting": "[1]", "result": "lower antibody stimulation level"}]}
{"molecule": "RKGYQLASEIRGTIPLSSLYYYLCAVRLRM [S404Y]", "values": [{"measurement": "immunogenicity (serum IgM antibody levels) after primary and booster immunization", "setting": "[1]", "result": "failed to show significantly improved immunogenicity"}, {"measurement": "affinity to TiLV-specific positive serum", "setting": "[5]", "result": "did not show improved affinity compared to P30"}]}
{"molecule": "GAQLASEIAGTIPASS [S3MuT]", "values": [{"measurement": "binding to GST-scFv1 by Western blot", "setting": "[6]", "result": "did not show the protein"}, {"measurement": "immunogenicity (serum antibody titer) after single immunization", "setting": "[1]", "result": "lower antibody stimulation level"}]}
{"molecule": "RKGYQLASEIRGFIPLSSLYYSLCAVRLRM [T395F]", "values": [{"measurement": "immunogenicity (serum IgM antibody levels) after primary and booster immunization", "setting": "[1]", "result": "failed to show significantly improved immunogenicity"}, {"measurement": "affinity to TiLV-specific positive serum", "setting": "[5]", "result": "did not show improved affinity compared to P30"}]}
{"molecule": "B1", "values": [{"measurement": "Kd", "setting": "[7]", "result": 573, "unit": "nM"}, {"measurement": "binding result", "setting": "[8]", "result": "binds"}, {"measurement": "binding result", "setting": "[9]", "result": "binds"}, {"measurement": "binding result", "setting": "[10]", "result": "binds"}, {"measurement": "binding result", "setting": "[11]", "result": "binds"}, {"measurement": "binding result", "setting": "[12]", "result": "binds"}]}
{"molecule": "B2", "values": [{"measurement": "binding result", "setting": "[8]", "result": "binds"}, {"measurement": "binding result", "setting": "[9]", "result": "binds"}, {"measurement": "binding result", "setting": "[10]", "result": "binds"}, {"measurement": "binding result", "setting": "[11]", "result": "binds"}, {"measurement": "binding result", "setting": "[12]", "result": "binds"}]}
